What was measured:
mSult1e1 = biological target: T1, mSult1e1 (Mus musculus, UniProt P49891); assay: HMF sulfoconjugation assay; type: biochemical
T1 construct: made in house; host or cells: Salmonella typhimurium TA1538 (cytosolic fraction, enzyme not purified)
T1 sequence (P49891 1-295): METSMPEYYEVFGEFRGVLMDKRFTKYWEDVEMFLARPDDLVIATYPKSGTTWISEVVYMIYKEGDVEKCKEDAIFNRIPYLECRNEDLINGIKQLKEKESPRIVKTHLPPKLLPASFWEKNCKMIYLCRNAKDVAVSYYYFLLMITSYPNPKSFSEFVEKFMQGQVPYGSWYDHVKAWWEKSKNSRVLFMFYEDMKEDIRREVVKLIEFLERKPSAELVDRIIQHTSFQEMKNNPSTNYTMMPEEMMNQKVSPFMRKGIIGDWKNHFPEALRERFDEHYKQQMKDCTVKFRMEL
Summary of the method: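 Read-out: SMF by negative-ion UPLC-MS/MS (m/z 204.9 → 96.0 and → 81.0), external calibration. Reactions used bacterial cytosol with one expressed SULT, HMF at several concentrations, 50 µM PAPS, 37 °C, 30 min, under linear protein and time conditions.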

[1] = design: method as in Monien et al. [2009]; details: 100 mg HMF/kg body weight administered to mice; ref Monien et al. [2009]; cited from earlier work

With `O=Cc1ccc(CO)o1` [HMF, 5-Hydroxymethylfurfural] the Rate of sulfoconjugation (mSult1e1; 0.1 mM HMF) was 3.7 ± 0.3 pmol/mg/min, the Rate of sulfoconjugation (mSult1e1; 1 mM HMF) was 35.5 ± 2.6 pmol/mg/min and the Rate of sulfoconjugation (mSult1e1; 10 mM HMF) was 226 ± 9 pmol/mg/min. The Rate of sulfoconjugation (mSult1e1; 100 mM HMF) was 534 ± 52 pmol/mg/min and the “fraction of dose converted to SMF” value [1] was 500 ppm.
